Experimental data from the supplement of paper PMC4862054.

Assays:
Conditions in all cases: incubation time: 72 h
BT-474 [1] = test: normalised response (% of control), CellTox Green; higher = less cell death (100 = DMSO, 0 = benzethonium chloride kill control)
Outline: (§1)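 Plates were normalised with 0.1 % DMSO as 100 and a positive kill control as 0. Breast cancer cell lines in 20 µl suspension had been seeded into 384-well plates with compound at 5 concentrations in 10-fold steps over a compound-specific 10,000-fold range, incubated 72 h, and read for CellTox Green fluorescence (485/520 nm) followed by CellTiter-Glo luminescence. Each value is the normalised signal at a single concentration.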

BT-549 [2] = test: as above
Outline: as §1

CAL-120 [3] = test: as above
Outline: as §1

CAL-148 [4] = test: as above
Outline: as §1

CAL-51 [5] = test: as above
Outline: as §1

CAL-85-1 [6] = test: as above
Outline: as §1

DU-4475 [7] = test: as above
Outline: as §1

HCC1143 [8] = test: as above
Outline: as §1

HCC1599 [9] = test: as above
Outline: as §1

HCC1937 [10] = test: as above
Outline: as §1

HDQ-P1 [11] = test: as above
Outline: as §1

Hs578T [12] = test: as above
Outline: as §1

MCF-10A [13] = test: as above
Outline: as §1

MDA-MB-231 [14] = test: as above
Outline: as §1

MDA-MB-436 [15] = test: as above
Outline: as §1

MDA-MB-453 [16] = test: as above
Outline: as §1

MFM-223 [17] = test: as above
Outline: as §1

BT-474 [18] = test: normalised response (% of control), CellTiter-Glo; higher = more viable cells (100 = DMSO, 0 = benzethonium chloride kill control)
Experimental: (§2)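 DSRT, 72 h incubation, CellTox Green / CellTiter-Glo readout. Signal is normalised to DMSO and benzethonium chloride controls. Value is the normalised response at dose 3.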

BT-549 [19] = test: as above
Experimental: as §2

CAL-120 [20] = test: as above
Experimental: as §2

CAL-148 [21] = test: as above
Experimental: as §2

CAL-51 [22] = test: as above
Experimental: as §2

CAL-85-1 [23] = test: as above
Experimental: as §2

DU-4475 [24] = test: as above
Experimental: as §2

HCC1143 [25] = test: as above
Experimental: as §2

HCC1599 [26] = test: as above
Experimental: as §2

HCC1937 [27] = test: as above
Experimental: as §2

HDQ-P1 [28] = test: as above
Experimental: as §2

Hs578T [29] = test: as above
Experimental: as §2

MCF-10A [30] = test: as above
Experimental: as §2

MDA-MB-231 [31] = test: as above
Experimental: as §2

MDA-MB-436 [32] = test: as above
Experimental: as §2

MDA-MB-453 [33] = test: as above
Experimental: as §2

MDA-MB-468 [34] = test: as above
Experimental: as §2

MFM-223 [35] = test: as above
Experimental: as §2

SK-BR-3 = test: as above
Experimental: as §2

MDA-MB-468 [36] = test: normalised response (% of control), CellTox Green; higher = less cell death (100 = DMSO, 0 = benzethonium chloride kill control)
Outline: as §1

Row | SMILES | normalised response (BT-474 [1]) [%] | normalised response (BT-549 [2]) [%] | normalised response (CAL-120 [3]) [%] | normalised response (CAL-148 [4]) [%] | normalised response (CAL-51 [5]) [%] | normalised response (CAL-85-1 [6]) [%] | normalised response (DU-4475 [7]) [%] | normalised response (HCC1143 [8]) [%] | normalised response (HCC1599 [9]) [%] | normalised response (HCC1937 [10]) [%] | normalised response (HDQ-P1 [11]) [%] | normalised response (Hs578T [12]) [%] | normalised response (MCF-10A [13]) [%] | normalised response (MDA-MB-231 [14]) [%] | normalised response (MDA-MB-436 [15]) [%] | normalised response (MDA-MB-453 [16]) [%] | normalised response (MFM-223 [17]) [%] | normalised response (BT-474 [18]) [%] | normalised response (BT-549 [19]) [%] | normalised response (CAL-120 [20]) [%] | normalised response (CAL-148 [21]) [%] | normalised response (CAL-51 [22]) [%] | normalised response (CAL-85-1 [23]) [%] | normalised response (DU-4475 [24]) [%] | normalised response (HCC1143 [25]) [%] | normalised response (HCC1599 [26]) [%] | normalised response (HCC1937 [27]) [%] | normalised response (HDQ-P1 [28]) [%] | normalised response (Hs578T [29]) [%] | normalised response (MCF-10A [30]) [%] | normalised response (MDA-MB-231 [31]) [%] | normalised response (MDA-MB-436 [32]) [%] | normalised response (MDA-MB-453 [33]) [%] | normalised response (MDA-MB-468 [34]) [%] | normalised response (MFM-223 [35]) [%] | normalised response (SK-BR-3) [%] | normalised response (MDA-MB-468 [36]) [%]
1 | Nc1ncnc2c1c(COc1cccc(Cl)c1)nn2C1CCOCC1 (100 nM) | 102 | 98.5 | 103 | 107 | 101 | 108 | 109 | 95.8 | 114 | 112 | 102 | 51.6 | 109 | 119 | 102 | 111 | 103 | 102 | 98.8 | 101 | 109 | 84.5 | 103 | 100 | 104 | 102 | 95.5 | 101 | 78.4 | 110 | 108 | 104 | 93.5 | 102 | 105 | 109 | 
2 | CN(C)CCN1C(=O)c2cccc3cc(N)cc(c23)C1=O [Amonafide] (100 nM) | 98.5 | 106 | 97.8 | 99.3 | 95.2 | 101 | 97.2 | 114 | 115 | 104 | 81.9 |  | 103 | 81.1 | 80.1 | 104 | 106 | 106 | 106 | 100 | 93.8 | 79.1 | 93.1 | 99.2 | 100 | 74.9 | 98.8 | 102 | 100 | 99.5 | 111 | 99.5 | 89.3 | 96.8 | 101 | 95.3 | 144
3 | CC(C)(C#N)c1cc(Cn2cncn2)cc(C(C)(C)C#N)c1 [Anastrozole] (100 nM) | 102 | 103 | 99.9 | 106 | 73.3 | 101 | 103 | 102 | 102 | 99.9 | 97.9 | 87 | 74.4 | 106 | 93.3 | 102 | 100 | 104 | 104 | 101 | 98.8 | 67.3 | 98.6 | 107 | 97 | 100 | 95.3 | 102 | 113 | 112 | 97.4 | 104 | 105 | 91.3 | 104 | 106 | 
4 | O=C(O)CCCc1ccc(N(CCCl)CCCl)cc1 [Chlorambucil] (100 nM) | 101 | 101 | 92.9 |  | 85.3 | 94.9 | 102 | 94.9 | 99 | 98.2 | 107 | 105 | 101 | 102 | 84.8 | 102 | 98.8 | 98.7 | 108 | 96.6 | 107 | 79.5 | 105 | 104 | 103 | 100 | 94 | 103 | 102 | 99.9 | 106 | 99.3 | 104 | 106 | 98.6 | 106 | 118
5 | c1ccc([C@H]2CN3CCSC3=N2)cc1 [Levamisole] (100 nM) | 100 | 99.2 | 102 | 103 | 112 | 107 | 101 | 93.9 | 104 | 76.8 | 102 | 76.6 | 87.5 |  | 99.2 | 101 | 106 | 106 | 98.3 | 104 | 114 | 101 | 103 | 107 | 102 | 106 | 96.8 | 100 | 110 | 110 | 103 | 107 | 110 | 113 | 113 | 108 | 120
6 | Nc1nc(OCc2cc(Br)cs2)c2[nH]cnc2n1 [Lomeguatrib] (100 nM) | 102 | 95.1 | 100 | 63.5 | 92.9 | 103 | 101 | 96.5 | 100 | 104 |  | 100 | 97.3 | 110 | 98.3 | 106 | 103 | 98.8 | 99.2 | 99.2 | 102 | 84.8 | 101 | 101 | 106 | 111 | 101 | 106 | 99 | 106 | 98.2 | 102 | 95.2 | 95.4 | 100 | 106 | 134
7 | CNNCc1ccc(C(=O)NC(C)C)cc1 [Procarbazine] (100 nM) | 102 | 102 | 103 | 102 | 112 | 99.7 | 107 | 99.4 | 98.7 | 94.1 |  | 63.4 | 98.5 | 119 | 103 | 106 |  | 100 | 109 | 106 | 104 | 102 | 101 | 101 | 108 | 107 | 103 | 105 | 104 | 109 | 105 | 95.4 | 104 | 99.4 | 103 | 105 | 95.5
8 | CN1CCN(CCOc2cc(OC3CCOCC3)c3c(Nc4c(Cl)ccc5c4OCO5)ncnc3c2)CC1 [Saracatinib] (100 nM) | 99.5 |  | 99 | 84.5 | 90.7 | 88.8 | 102 | 56.8 | 94.3 | 88.4 | 90.7 |  | 89.4 | 90.6 | 97 | 106 |  | 84.4 | 104 | 95.1 | 98.5 | 106 | 102 | 93.9 | 96.1 | 111 | 94.2 | 93.5 | 104 | 78.2 | 78.7 | 95.1 | 106 | 95.5 | 94.6 | 109 | 
9 | Cn1cncc1[C@@](N)(c1ccc(Cl)cc1)c1ccc2c(c1)c(-c1cccc(Cl)c1)cc(=O)n2C [Tipifarnib] (100 nM) | 98.2 | 107 | 90.6 | 92.2 | 63.4 | 108 | 98.1 | 104 | 107 | 99.6 | 103 | 57.8 | 99.7 |  | 20.8 | 98.7 | 99.9 | 87.6 | 86.9 | 89.3 | 85.3 | 72 | 104 | 77.8 | 88.8 | 91.5 | 80.8 | 81.2 | 83.1 | 83.9 | 92.7 | 71.6 | 75.7 | 74.9 | 82.6 | 69.3 | 118
